The source of these data is ChEMBL document CHEMBL5046232, “Affinity-based protein profiling identifies vitamin D3 as a heat shock protein 70 antagonist that regulates hedgehog transduction in murine basal cell carcinoma” (Eur J Med Chem, 2022).

Activity calls are given as the source filed them. No cut-off for these calls is given here. A value given as a limit tells only on which side of the number the result lay.

A short description of assay [1]: Inhibition of hedgehog signalling in mouse Ptch-KO MEF cells assessed as reduction in Gli1 mRNA expression measured after 48 hrs by RT-PCR analysis. The format is cell-based.
Assay [2] in a line: Inhibition of hedgehog signalling in mouse C3H 10T1/2 cells assessed as reduction in Gli1 mRNA expression measured after 48 hrs by RT-PCR analysis. The format is cell-based. The settings on record: C3H 10T1/2, 48 h.
The nature of assay [3]: Inhibition of hedgehog signalling in mouse ASZ001 cells assessed as reduction in Gli1 mRNA expression measured after 48 hrs by RT-PCR analysis. The assay is classed as cell-based. The settings on record: ASZ001, 48 h.
Assay [4] is described as follows: Inhibition of hedgehog signalling in mouse Sufu-KO MEF cells assessed as reduction in Gli1 mRNA expression measured after 48 hrs by RT-PCR analysis. The assay is classed as cell-based.
The nature of assay [5]: Binding affinity to recombinant human HSP70 assessed as dissociation constant incubated for 1 hrs […].
The target of assay [6] is T1, Vitamin D3 receptor (Mus musculus) (UniProt P48281).
T1 sequence (whole entry): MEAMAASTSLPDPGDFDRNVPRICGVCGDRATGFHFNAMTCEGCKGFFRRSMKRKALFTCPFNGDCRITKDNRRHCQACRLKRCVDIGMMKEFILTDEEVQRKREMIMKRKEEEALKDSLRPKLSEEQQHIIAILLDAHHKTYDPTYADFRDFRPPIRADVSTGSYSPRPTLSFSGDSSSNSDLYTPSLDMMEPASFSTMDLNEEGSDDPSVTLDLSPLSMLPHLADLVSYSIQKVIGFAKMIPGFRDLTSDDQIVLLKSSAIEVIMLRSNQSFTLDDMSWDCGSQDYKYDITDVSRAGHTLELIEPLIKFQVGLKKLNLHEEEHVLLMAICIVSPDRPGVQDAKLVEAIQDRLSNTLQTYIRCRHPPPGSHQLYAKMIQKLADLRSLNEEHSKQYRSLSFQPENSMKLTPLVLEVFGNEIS
Put plainly: Activation of VDR in mouse C3H 10T1/2 cells assessed as upregulation of Cyp24A1 mRNA expression at 5 uM measured after 48 hrs by RT-PCR analysis relative to control. The assay is classed as cell-based.

Assay [7] has as its target T1, Vitamin D3 receptor (Mus musculus). Description: Activation of VDR in mouse ASZ001 cells assessed as upregulation of Cyp24A1 mRNA expression at 5 uM measured after 48 hrs by RT-PCR analysis relative to control. The assay is classed as cell-based.
Assay [8] concerns ASZ001. Description: Inhibition of hedgehog signalling in mouse ASZ001 cells assessed as upregulation of VDR expression in by immunoblot analysis. The format is cell-based.
Assay [9] deals with MEF. Description: Inhibition of hedgehog signalling in mouse Sufu-KO MEF cells assessed as upregulation of VDR expression at 10 uM in by immunoblot analysis. The format is cell-based.
The target of assay [10] is T1, Vitamin D3 receptor (Mus musculus). Put plainly: Activation of VDR in mouse ASZ001 cells assessed as upregulation of Cyp24A1 mRNA expression at 2.5 uM measured after 48 hrs by RT-PCR analysis relative to control. The settings on record: filed as activator. The assay is classed as cell-based.
Assay [11] in a line: Inhibition of hedgehog signalling in mouse VDR-KO MEF cells assessed as reduction in Gli1 mRNA expression measured after 48 hrs by RT-PCR analysis. The format is cell-based.
The species entered for assay [12] is Mus musculus. Put plainly: Selectivity index, ratio of IC50 for Inhibition of hedgehog signalling in mouse VDR-KO MEF cells to IC50 for inhibition of hedgehog signalling in mouse ASZ001 cells. The format is cell-based.
In assay [13] the target is T1, Vitamin D3 receptor (Mus musculus). Put plainly: Activation of VDR in mouse C3H 10T1/2 cells assessed as upregulation of Cyp24A1 mRNA expression at 2.5 uM measured after 48 hrs by RT-PCR analysis relative to control. The assay is classed as cell-based. The settings on record: filed as activator.
The species named for assay [14] is Homo sapiens. Description: Binding affinity to recombinant human HSP70 at 200 uM incubated for 1 hrs in presence of Calcitriol by Western blotting based pull-down assay. The settings on record: filed as antagonist. (A western blot detects proteins with antibodies after separation by electrophoresis.)
The species named for assay [15] is Homo sapiens. Description: Binding affinity to recombinant human HSP70 incubated for 1 hrs by Western blotting based pull-down assay. The note with it: filed as antagonist.
The species named for assay [16] is Homo sapiens. Put plainly: Binding affinity to recombinant human HSP70 at 200 uM incubated for 1 hrs in presence of calcidiol by Western blotting based pull-down assay.
The subject of assay [17] is ASZ001. Description: Inhibition of hedgehog signalling in mouse ASZ001 cells assessed as reduction in Gli1 mRNA expression at 10 uM for 20 hrs by […]. The assay is classed as cell-based.
The subject of assay [18] is C3H 10T1/2. Description: Antiproliferative activity against mouse C3H 10T1/2 assessed as reduction in cell proliferation incubated for 72 hrs by MTS assay. The format is functional, cell-based. On the technique in general: Formazan colour is commonly taken as a measure of viable cells.
In assay [19] the test system is ASZ001. Put plainly: Antiproliferative activity against mouse ASZ001 assessed as reduction in cell proliferation incubated for 72 hrs by MTS assay. The assay is classed as functional, cell-based.
The species named for assay [20] is Homo sapiens. Put plainly: Competitive binding affinity to recombinant human HSP70 at 200 uM incubated for 1 hrs in presence of Vitamin D3 by Western blotting based pull-down assay.
The test system of assay [21] is MEF. Put plainly: Inhibition of hedgehog signalling in mouse Sufu-KO MEF cells assessed as upregulation of Cyp27A1 expression by immunoblot analysis. The assay is classed as cell-based.
Assay [22] deals with MEF. Put plainly: Inhibition of hedgehog signalling in mouse Sufu-KO MEF cells assessed as upregulation of Cyp27B1 expression by immunoblot analysis. The format is cell-based.
Assay [23] deals with ASZ001. Description: Inhibition of hedgehog signalling in mouse ASZ001 cells assessed as upregulation of Cyp27B1 expression by immunoblot analysis. The format is cell-based.
Assay [24] relates to ASZ001. Description: Inhibition of hedgehog signalling in mouse ASZ001 cells assessed as downregulation of VDR expression in by immunoblot analysis. The format is cell-based.
The subject of assay [25] is MEF. Put plainly: Inhibition of hedgehog signalling in mouse Sufu-KO MEF cells assessed as upregulation of VDR expression at >15 uM in by immunoblot analysis. The note with it: dose microM >15. The format is cell-based.
Assay [26] concerns ASZ001. Put plainly: Inhibition of hedgehog signalling in mouse ASZ001 cells assessed as upregulation of Cyp27A1 expression by immunoblot analysis. The format is cell-based.

The IC50 is the concentration that gives 50% inhibition. Usually Kd stands for the constant that tells how readily two partners part at equilibrium. As to `COc1ccc(-c2nc(-c3cc(C(F)(F)F)cc(C(F)(F)F)c3)n(Cc3ccc(C(N)=O)cc3)c2-c2ccc(OC)cc2)cc1`, the IC50 was 1700 nM in [1], 970 nM in [2], 580 nM in assay [3] and “Not Active” in [4] (mef). Further, the Kd in assay [5] amounted to 840 nM.
Consider `C=C1CC[C@H](O)C/C1=C/C=C1\CCC[C@]2(C)[C@@H]([C@H](C)[C@@H](O)CCC(C)C)CC[C@@H]12`, for which the IC50 was 1300 nM in [2] and 380 nM in assay [3]. Moreover, the Activity in assay [6] (filed as activator) stood at 261%; in assay [7] (filed as activator), 105%. The Kd in [5] worked out at 11500 nM.
As to `C=C1/C(=C\C=C2/CCC[C@]3(C)[C@@H]([C@H](C)CCCC(C)(C)O)CC[C@@H]23)C[C@@H](O)C[C@@H]1O`, the result in [8] and in [9] was Active.
As for `C=C1CC[C@H](O)C/C1=C/C=C1\CCC[C@]2(C)[C@@H]([C@H](C)[C@H](O)CCC(C)(C)O)CC[C@@H]12`, the IC50 in assay [2] is 790 nM; in [3], 710 nM. Moreover, the values for the Activity in assay [6] (filed as activator) and in assay [7] (filed as activator) were 527% and 122%, respectively. In addition, the Kd in assay [5] is 40300 nM.
As for `C=C1CC[C@H](O)C/C1=C/C=C1\CCC[C@]2(C)[C@@H]([C@H](C)CCCC(C)(C)O)CC[C@@H]12` [CALCIFEDIOL ANHYDROUS], the IC50 came to 480 nM in assay [2], 400 nM in [3] and 4400 nM in assay [11]. In addition, the Activity in assay [10] and in assay [13] was more than 500% in each case. Besides, in assay [12], the Ratio IC50 worked out at 11. In addition, the Kd in assay [5] is 6500 nM.
For `C#CCO[C@@H](CCC(C)C)[C@@H](C)[C@H]1CC[C@H]2/C(=C/C=C3/C[C@@H](O)CCC3=C)CCC[C@]12C`, the values for the IC50 in [2] and in [3] were 2600 nM and 260 nM, respectively. Also, the Activity in assay [6] and in [7] was less than 1% in each case.
In the case of `C=C1CC[C@H](O)C/C1=C/C=C1\CCC[C@]2(C)[C@@H]([C@H](C)[C@H](O)CCC(C)C)CC[C@@H]12`, the results for the IC50 in assay [2] and in assay [3] were 1200 nM and 420 nM, respectively. Moreover, the Activity in [6] (filed as activator) came to 214%; in [7] (filed as activator), 103%. The Kd in [5] is 4300 nM.
`C=C1CC[C@H](O)C/C1=C/C=C1\CCC[C@]2(C)[C@@H]([C@H](C)[C@@H](CCC(C)(C)O)OCc3cn(CCOCCOCCOCCNC(=O)CCCC[C@H]4SC[C@H]5NC(=O)N[C@H]54)nn3)CC[C@@H]12`: the result in [14], in [17], in [18] and in [19] was Active. For the same molecule, the Activity entry in assay [15] was “Dose-Dependent Effect”; in [6], less than 1%; in assay [7] it was less than 1%. Moreover, the values for the IC50 in [2] and in assay [3] were 1900 nM and 1100 nM, respectively. The outcome in [16] and in assay [20] was inactive.
As to `C=C1CC[C@H](O)C/C1=C/C=C1\CCC[C@]2(C)[C@@H]([C@H](C)[C@H](CCC(C)(C)O)OCc3cn(CCOCCOCCOCCNC(=O)CCCC[C@H]4SC[C@H]5NC(=O)N[C@H]54)nn3)CC[C@@H]12`, the results for the IC50 in assay [2] and in assay [3] were 7200 nM and 3400 nM, respectively. In addition, the Activity in assay [6] and in [7] was less than 1% each time. Also, the outcome in [18] and in assay [19] was Active.
For `C=C1CC[C@H](O)C/C1=C/C=C1\CCC[C@]2(C)[C@@H]([C@H](C)[C@@H](O)CCC(C)(C)O)CC[C@@H]12`, the 50% inhibitory concentration (IC50) is 1200 nM in [2] and 1700 nM in [3]. The Activity is 540% in assay [6] (filed as activator) and 130% in [7] (filed as activator). Besides, the dissociation constant (Kd) in [5] is more than 50000 nM.
Take `C#CCO[C@H](CCC(C)C)[C@@H](C)[C@H]1CC[C@H]2/C(=C/C=C3/C[C@@H](O)CCC3=C)CCC[C@]12C`: the values for the IC50 in [2] and in [3] were 1100 nM and 430 nM, respectively. Moreover, the Activity is less than 1% in assay [6] and 9% in assay [7].
Take `C#CCO[C@H](CCC(C)(C)O)[C@@H](C)[C@H]1CC[C@H]2/C(=C/C=C3/C[C@@H](O)CCC3=C)CCC[C@]12C`: the IC50 in assay [3] amounted to 13800 nM. Also, the Activity in assay [7] was less than 1%.
As to `C=C1CC[C@H](O)C/C1=C/C=C1\CCC[C@]2(C)[C@@H]([C@H](C)CCCC(C)C)CC[C@@H]12` [CHOLECALCIFEROL], the Activity entry in [21] was “Dose-Dependent Effect”; in assay [22] it was “Dose-Dependent Effect”; in [6] (filed as activator), 100%; in assay [7] (filed as activator), 100%. The IC50 in [1] was 5800 nM; in assay [2] it was 4100 nM; in assay [3], 2100 nM; in assay [4] (Mus musculus, MEF, 48 h, read-out: IC50), 13600 nM. Moreover, the Ratio IC50 in [12] stood at 2. The result in assay [23], in assay [24] and in assay [26] was inactive. In assay [5], the Kd worked out at 1400 nM. In addition, in assay [25], the inhibition entry was “Active”.
In the case of `CCn1c(=O)/c(=C2\Sc3ccccc3N2C)s/c1=C\c1cccc[n+]1CC.[Cl-]`, the IC50 in [1] was 9500 nM; in assay [2], 5600 nM; in [3], 1800 nM; in assay [4] (mef), “Not Active”.
